In PubChem BioAssay AID250 (DTP/NCI, 2004):
Several values for one entry are separate records, joined by “and”; a condition that tells them apart may be missing. Equal values may be shown once. Inconclusive results and toxic doses are left out.

Tested on: BDF1 mice, L1210 leukemia sc, survival T/C
Test: NCI In Vivo Anticancer Drug Screen. Data for tumor model L1210 Leukemia (subcutaneous) in B6D2F1 (BDF1) mice
Settings: higher = longer survival
Method: The antitumor activity of compounds was measured in mice bearing transplantable tumors. Survival or tumor size were measured and the results are expressed as the measurement made in the treated group (T) divided by the measurement made in the vehicle treated control group (C). The tumor model used in this assay is L1210 Leukemia (subcutaneous) in B6D2F1 (BDF1) mice

[1] = endpoint: median survival time, dose: 0.65 mg/kg/injection, schedule: Q01DX Z (sc), vehicle: methylcellulose (MC)
[2] = endpoint: median survival time, dose: 1.08 mg/kg/injection, schedule: Q01DX Z (sc), vehicle: methylcellulose (MC)
[3] = endpoint: median survival time, dose: 1.8 mg/kg/injection, schedule: Q01DX Z (sc), vehicle: methylcellulose (MC)
[4] = endpoint: median survival time, dose: 65.0 mg/kg/injection, schedule: Q01DX Z (sc), vehicle: saline
[5] = endpoint: median survival time, dose: 108.0 mg/kg/injection, schedule: Q01DX Z (sc), vehicle: saline
[6] = endpoint: median survival time, dose: 180.0 mg/kg/injection, schedule: Q01DX Z (sc), vehicle: saline
[7] = endpoint: median survival time, dose: 300.0 mg/kg/injection, schedule: Q01DX Z (sc), vehicle: saline
[8] = endpoint: median survival time, dose: 500.0 mg/kg/injection, schedule: Q01DX Z (sc), vehicle: saline
[9] = endpoint: median survival time, dose: 108.0 mg/kg/injection, schedule: Q01DX Z (sc), vehicle: methylcellulose (MC)

Structure (SMILES): COC1=C(N)C(=O)c2nc(-c3nc(C(=O)O)c(C)c(-c4ccc(OC)c(OC)c4O)c3N)ccc2C1=O
- T/C (endpoint: median survival time, dose: 0.02 mg/kg/injection, schedule: Q01DX009 (ip), vehicle: water): 92 % of control
- T/C (endpoint: median survival time, dose: 0.02 mg/kg/injection, schedule: Q01DX009 (sc), vehicle: water): 93 % of control
- T/C (endpoint: median survival time, dose: 0.05 mg/kg/injection, schedule: Q01DX009 (ip), vehicle: water): 96 % of control
- T/C (endpoint: median survival time, dose: 0.05 mg/kg/injection, schedule: Q01DX009 (sc), vehicle: water): 98 % of control
- T/C (endpoint: median survival time, dose: 0.1 mg/kg/injection, schedule: Q01DX009 (ip), vehicle: water): 96 % of control
- T/C (endpoint: median survival time, dose: 0.1 mg/kg/injection, schedule: Q01DX009 (sc), vehicle: water): 96 % of control
- T/C (endpoint: median survival time, dose: 0.2 mg/kg/injection, schedule: Q01DX009 (ip), vehicle: water): 93 % of control
- T/C (endpoint: median survival time, dose: 0.2 mg/kg/injection, schedule: Q01DX009 (sc), vehicle: water): 94 % of control
- T/C (endpoint: median survival time, dose: 0.25 mg/kg/injection, schedule: Q01DX009 (sc), vehicle: water): 104 % of control
- T/C (endpoint: median survival time, dose: 0.4 mg/kg/injection, schedule: Q01DX009 (ip), vehicle: water): 102 % of control
- T/C (endpoint: median survival time, dose: 0.4 mg/kg/injection, schedule: Q01DX009 (sc), vehicle: water): 98 % of control
- T/C (endpoint: median survival time, dose: 0.5 mg/kg/injection, schedule: Q01DX009 (sc), vehicle: water): 94 % of control and 106 % of control
- T/C (endpoint: median survival time, dose: 1.0 mg/kg/injection, schedule: Q01DX009 (sc), vehicle: water): 96 % of control and 101 % of control
- T/C (endpoint: median survival time, dose: 2.0 mg/kg/injection, schedule: Q01DX009 (sc), vehicle: water): 94 % of control and 96 % of control
- T/C (endpoint: median survival time, dose: 4.0 mg/kg/injection, schedule: Q01DX009 (sc), vehicle: water): 94 % of control

Structure (SMILES): NC(Cc1c[nH]c2ccc(N(CCCl)CCCl)cc12)C(=O)O (stereo unspecified)
- T/C [1]: 105 % of control
- T/C [2]: 111 % of control
- T/C [3]: 123 % of control
- T/C (endpoint: median survival time, dose: 8.4 mg/kg/injection, schedule: Q01DX Z (sc), vehicle: methylcellulose (MC)): 117 % of control

Structure (SMILES): CCSc1nc(Cl)cc(Sc2nc(N)nc3nc[nH]c23)n1
- T/C (endpoint: median survival time, dose: 97.5 mg/kg/injection, schedule: Q01DX Z (sc), vehicle: methylcellulose (MC)): 100 % of control
- T/C (endpoint: median survival time, dose: 156.0 mg/kg/injection, schedule: Q01DX Z (sc), vehicle: methylcellulose (MC)): 100 % of control
- T/C (endpoint: median survival time, dose: 250.0 mg/kg/injection, schedule: Q01DX Z (sc), vehicle: methylcellulose (MC)): 100 % of control
- T/C (endpoint: median survival time, dose: 400.0 mg/kg/injection, schedule: Q01DX Z (sc), vehicle: methylcellulose (MC)): 100 % of control
- T/C (endpoint: median survival time, dose: 640.0 mg/kg/injection, schedule: Q01DX Z (sc), vehicle: methylcellulose (MC)): 95 % of control

Structure (SMILES): Cc1cc(N)c2cc(NC(=O)CCCCCCCCC(=O)Nc3ccc4nc(C)cc(N)c4c3)ccc2n1
- T/C [4]: 91 % of control
- T/C [5]: 91 % of control
- T/C (endpoint: median survival time, dose: 130.0 mg/kg/injection, schedule: Q01DX Z (sc), vehicle: saline): 91 % of control
- T/C [6]: 91 % of control
- T/C (endpoint: median survival time, dose: 216.0 mg/kg/injection, schedule: Q01DX Z (sc), vehicle: saline): 91 % of control
- T/C [7]: 91 % of control
- T/C (endpoint: median survival time, dose: 360.0 mg/kg/injection, schedule: Q01DX Z (sc), vehicle: saline): 91 % of control
- T/C [8]: 95 % of control
- T/C (endpoint: median survival time, dose: 600.0 mg/kg/injection, schedule: Q01DX Z (sc), vehicle: saline): 91 % of control
- T/C (endpoint: median survival time, dose: 1000.0 mg/kg/injection, schedule: Q01DX Z (sc), vehicle: saline): 95 % of control

Structure (SMILES): CCCCCCCSc1ncnc2nc[nH]c12
- T/C [9]: 111 % of control
- T/C (endpoint: median survival time, dose: 180.0 mg/kg/injection, schedule: Q01DX Z (sc), vehicle: methylcellulose (MC)): 111 % of control
- T/C (endpoint: median survival time, dose: 300.0 mg/kg/injection, schedule: Q01DX Z (sc), vehicle: methylcellulose (MC)): 100 % of control
- T/C (endpoint: median survival time, dose: 500.0 mg/kg/injection, schedule: Q01DX Z (sc), vehicle: methylcellulose (MC)): 100 % of control
- T/C (endpoint: median survival time, dose: 833.0 mg/kg/injection, schedule: Q01DX Z (sc), vehicle: methylcellulose (MC)): 100 % of control
- T/C (endpoint: median survival time, dose: 1388.0 mg/kg/injection, schedule: Q01DX Z (sc), vehicle: methylcellulose (MC)): 100 % of control

Structure (SMILES): COc1cc(NS(C)(=O)=O)ccc1Nc1c2ccccc2nc2c(C)cccc12
- T/C (endpoint: mean survival time, dose: 2.5 mg/kg/injection, schedule: Q01DX009 (ip), vehicle: saline): 100 % of control and 114 % of control
- T/C (endpoint: mean survival time, dose: 5.0 mg/kg/injection, schedule: Q01DX009 (ip), vehicle: saline): 108 % of control and 103 % of control
- T/C (endpoint: mean survival time, dose: 10.0 mg/kg/injection, schedule: Q01DX009 (ip), vehicle: saline): 99 % of control

Structure (SMILES): CC(C)CSc1ncnc2nc[nH]c12
- T/C (endpoint: median survival time, dose: 38.9 mg/kg/injection, schedule: Q01DX Z (sc), vehicle: methylcellulose (MC)): 100 % of control
- T/C (endpoint: median survival time, dose: 64.8 mg/kg/injection, schedule: Q01DX Z (sc), vehicle: methylcellulose (MC)): 100 % of control
- T/C [9]: 100 % of control

Structure (SMILES): O=c1[nH]c(=O)n(C2OC(CO)C(O)C2O)cc1I (stereo unspecified)
- T/C (endpoint: median survival time, dose: 39.0 mg/kg/injection, schedule: Q01DX Z (sc), vehicle: saline): 100 % of control
- T/C [4]: 100 % of control
- T/C [5]: 100 % of control
- T/C [6]: 94 % of control and 100 % of control
- T/C [7]: 100 % of control
- T/C [8]: 100 % of control and 105 % of control
- T/C (endpoint: median survival time, dose: 833.0 mg/kg/injection, schedule: Q01DX Z (sc), vehicle: saline): 94 % of control
- T/C (endpoint: median survival time, dose: 1388.0 mg/kg/injection, schedule: Q01DX Z (sc), vehicle: saline): 94 % of control

Structure (SMILES): S=P(N1CC1)(N1CC1)N1CC1
- T/C (endpoint: median survival time, dose: 1.08 mg/kg/injection, schedule: Q01DX Z (sc), vehicle: saline): 110 % of control
- T/C (endpoint: median survival time, dose: 1.5 mg/kg/injection, schedule: Q01DX009 (ip), vehicle: water): 113 % of control
- T/C (endpoint: median survival time, dose: 1.5 mg/kg/injection, schedule: Q01DX009 (sc), vehicle: water): 105 % of control
- T/C (endpoint: median survival time, dose: 1.8 mg/kg/injection, schedule: Q01DX Z (sc), vehicle: saline): 100 % of control and 110 % of control
- T/C (endpoint: median survival time, dose: 3.0 mg/kg/injection, schedule: Q01DX Z (sc), vehicle: saline): 112 % of control
- T/C (endpoint: median survival time, dose: 5.0 mg/kg/injection, schedule: Q01DX Z (sc), vehicle: saline): 156 % of control
- T/C (endpoint: median survival time, dose: 6.0 mg/kg/injection, schedule: Q01DX009 (ip), vehicle: water): 94 % of control
- T/C (endpoint: median survival time, dose: 6.0 mg/kg/injection, schedule: Q01DX009 (sc), vehicle: water): 169 % of control
- T/C (endpoint: median survival time, dose: 8.4 mg/kg/injection, schedule: Q01DX Z (sc), vehicle: saline): 170 % of control
- T/C (endpoint: median survival time, dose: 12.0 mg/kg/injection, schedule: Q01DX009 (sc), vehicle: water): 86 % of control
- T/C (endpoint: median survival time, dose: 14.0 mg/kg/injection, schedule: Q01DX Z (sc), vehicle: saline): 120 % of control
- T/C (endpoint: median survival time, dose: 23.0 mg/kg/injection, schedule: Q01DX Z (sc), vehicle: saline): 104 % of control and 120 % of control

Structure (SMILES): CCCCCn1c(C)cc(/C=C\c2ccc3cc(C)ccc3[n+]2C)c1C
- T/C (endpoint: median survival time, dose: 0.23 mg/kg/injection, schedule: Q01DX Z (sc), vehicle: methylcellulose (MC)): 100 % of control
- T/C (endpoint: median survival time, dose: 0.39 mg/kg/injection, schedule: Q01DX Z (sc), vehicle: methylcellulose (MC)): 100 % of control
- T/C [1]: 100 % of control
- T/C [2]: 100 % of control
- T/C [3]: 100 % of control
